Source: patent publication US20150209315A1 (Cumberland Pharmaceuticals, priority 2009, published 2015)

System: post-operative adult patients
Experiment: Example 1: patient self-assessment of pain, VAS at rest
Type: in vivo, human
Settings: 400 mg
Method: Pain was measured by the patient's self-assessment using a Visual Analog Scale (VAS) from 0-10 with 0 being no pain and 10 being intense pain. This was measured both at rest and with movement. […] […] To account for the missing pain assessments, two missing value approaches as described in the statistical analysis plan were used to impute values. To determine the difference in overall pain at differing time-points, the area under the VAS pain curve during the first 24 hours, between 6 and 24 hours and between 12 and 24 hours were analyzed.

CC(C)Cc1ccc(C(C)C(=O)O)cc1 (stereo not drawn) [Ibuprofen, 2-(4-isobutylphenyl) propionic acid]
VAS Score measured at Rest (median) (EEP, 1-Hour): 7.0 | VAS Score measured at Rest, % Reduction vs Placebo (EEP, 1-Hour): 0.0% | VAS Score measured at Rest (median) (EEP, 2-Hour): 6.1 | VAS Score measured at Rest, % Reduction vs Placebo (EEP, 2-Hour): −3.4% | VAS Score measured at Rest (median) (EEP, 3-Hour): 5.0 | VAS Score measured at Rest, % Reduction vs Placebo (EEP, 3-Hour): 0.0% | VAS Score measured at Rest (median) (EEP, 6-Hour): 4.0 | VAS Score measured at Rest, % Reduction vs Placebo (EEP, 6-Hour): 0.0% | VAS Score measured at Rest (median) (EEP, 9-Hour): 3.0 | VAS Score measured at Rest (median) (EEP, 12-Hour): 3.0 | VAS Score measured at Rest, % Reduction vs Placebo (EEP, 12-Hour): 0.0% | VAS Score measured at Rest (median) (EEP, 15-Hour): 2.0 | VAS Score measured at Rest, % Reduction vs Placebo (EEP, 15-Hour): 33.3% | VAS Score measured at Rest (median) (EEP, 18-Hour): 2.9 | VAS Score measured at Rest, % Reduction vs Placebo (EEP, 18-Hour): 3.3% | VAS Score measured at Rest (median) (EEP, 21-Hour): 2.9 | VAS Score measured at Rest, % Reduction vs Placebo (EEP, 21-Hour): 3.3% | VAS Score measured at Rest (median) (EEP, 24-Hour): 3.0 | VAS Score measured at Rest, % Reduction vs Placebo (EEP, 24-Hour): 0.0% | VAS Score measured at Rest (median) (EEP, 27-Hour): 3.0 | VAS Score measured at Rest, % Reduction vs Placebo (EEP, 27-Hour): 3.2% | VAS Score measured at Rest (median) (EEP, 30-Hour): 2.5 | VAS Score measured at Rest, % Reduction vs Placebo (EEP, 30-Hour): 10.7% | VAS Score measured at Rest (median) (EEP, 33-Hour): 2.7 | VAS Score measured at Rest, % Reduction vs Placebo (EEP, 33-Hour): 15.6% | VAS Score measured at Rest (median) (EEP, 36-Hour): 2.4 | VAS Score measured at Rest, % Reduction vs Placebo (EEP, 36-Hour): 7.7% | VAS Score measured at Rest (median) (EEP, 39-Hour): 2.1 | VAS Score measured at Rest, % Reduction vs Placebo (EEP, 39-Hour): −16.7% | VAS Score measured at Rest (median) (EEP, 42-Hour): 2.1 | VAS Score measured at Rest, % Reduction vs Placebo (EEP, 42-Hour): −5.0% | VAS Score measured at Rest (median) (EEP, 45-Hour): 2.4 | VAS Score measured at Rest, % Reduction vs Placebo (EEP, 45-Hour): −14.3% | VAS Score measured at Rest (median) (EEP, 48-Hour): 1.6 | VAS Score measured at Rest, % Reduction vs Placebo (EEP, 48-Hour): −6.7% | VAS Score measured at Rest (median) (ITT, 1-Hour): 7.0 | VAS Score measured at Rest, % Reduction vs Placebo (ITT, 1-Hour): 0.0% | VAS Score measured at Rest (median) (ITT, 2-Hour): 6.3 | VAS Score measured at Rest, % Reduction vs Placebo (ITT, 2-Hour): −3.3% | VAS Score measured at Rest (median) (ITT, 3-Hour): 5.1 | VAS Score measured at Rest, % Reduction vs Placebo (ITT, 3-Hour): −2.0% | VAS Score measured at Rest (median) (ITT, 6-Hour): 4.3 | VAS Score measured at Rest, % Reduction vs Placebo (ITT, 6-Hour): −7.5% | VAS Score measured at Rest (median) (ITT, 9-Hour): 3.5 | VAS Score measured at Rest, % Reduction vs Placebo (ITT, 9-Hour): 12.5% | VAS Score measured at Rest (median) (ITT, 12-Hour): 3.1 | VAS Score measured at Rest, % Reduction vs Placebo (ITT, 12-Hour): −3.3% | VAS Score measured at Rest (median) (ITT, 15-Hour): 2.6 | VAS Score measured at Rest, % Reduction vs Placebo (ITT, 15-Hour): 21.2% | VAS Score measured at Rest (median) (ITT, 18-Hour): 2.9 | VAS Score measured at Rest, % Reduction vs Placebo (ITT, 18-Hour): 3.3% | VAS Score measured at Rest (median) (ITT, 21-Hour): 2.8 | VAS Score measured at Rest, % Reduction vs Placebo (ITT, 21-Hour): 20.0% | VAS Score measured at Rest (median) (ITT, 24-Hour): 3.0 | VAS Score measured at Rest, % Reduction vs Placebo (ITT, 24-Hour): 0.0% | VAS Score measured at Rest (median) (ITT, 27-Hour): 3.1 | VAS Score measured at Rest, % Reduction vs Placebo (ITT, 27-Hour): −3.3% | VAS Score measured at Rest (median) (ITT, 30-Hour): 2.4 | VAS Score measured at Rest, % Reduction vs Placebo (ITT, 30-Hour): 11.1% | VAS Score measured at Rest (median) (ITT, 33-Hour): 2.7 | VAS Score measured at Rest, % Reduction vs Placebo (ITT, 33-Hour): 15.6% | VAS Score measured at Rest (median) (ITT, 36-Hour): 2.3 | VAS Score measured at Rest, % Reduction vs Placebo (ITT, 36-Hour): 11.5% | VAS Score measured at Rest (median) (ITT, 39-Hour): 2.1 | VAS Score measured at Rest, % Reduction vs Placebo (ITT, 39-Hour): −16.7% | VAS Score measured at Rest (median) (ITT, 42-Hour): 2.1 | VAS Score measured at Rest, % Reduction vs Placebo (ITT, 42-Hour): −5.0% | VAS Score measured at Rest (median) (ITT, 45-Hour): 2.4 | VAS Score measured at Rest, % Reduction vs Placebo (ITT, 45-Hour): −20.0%
